# Assay results reported in ChEMBL document CHEMBL1147701, “Novel 4-anilinoquinazolines with C-6 carbon-linked side chains: synthesis and structure-activity relationship of a series of potent, orally active, EGF receptor tyrosine kinase inhibitors” (Bioorg Med Chem Lett, 2006).
# Columns and labels:
# [1] = Dissociation constant, pKa of the compound; format: physicochemical
# [2] = Clearance in rat; format: ADME, organism-based; details: in vivo
# [3] = Volume of distribution in rat; format: ADME, organism-based; details: in vivo, read-out: Vdss
# [4] = Bioavailability in rat; format: ADME, organism-based; details: in vivo
# [5] = molecular target: T1, Serine/threonine-protein kinase Sgk1 (Homo sapiens, UniProt O00141); test: Inhibition of SGK
# T1 sequence (O00141 whole entry): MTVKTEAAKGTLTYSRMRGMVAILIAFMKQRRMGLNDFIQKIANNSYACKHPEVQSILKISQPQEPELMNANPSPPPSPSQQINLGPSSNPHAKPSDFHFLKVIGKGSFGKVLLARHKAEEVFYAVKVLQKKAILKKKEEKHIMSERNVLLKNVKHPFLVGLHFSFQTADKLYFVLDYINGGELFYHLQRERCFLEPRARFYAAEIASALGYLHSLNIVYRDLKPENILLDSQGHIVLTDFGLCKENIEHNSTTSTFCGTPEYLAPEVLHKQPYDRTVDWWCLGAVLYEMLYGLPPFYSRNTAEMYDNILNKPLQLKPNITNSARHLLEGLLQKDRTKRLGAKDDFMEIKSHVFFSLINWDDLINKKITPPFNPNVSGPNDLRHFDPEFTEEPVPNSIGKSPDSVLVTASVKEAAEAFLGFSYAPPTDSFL
# [6] = molecular target: Mitogen-activated protein kinase 1 (Homo sapiens, UniProt P28482); test: Inhibition of MAPK
# [7] = molecular target: c-Jun N-terminal kinase, JNK (Homo sapiens, UniProt P45983+P53779+P45984); test: Inhibition of JNK; format: protein assay
# [8] = molecular target: cAMP-dependent protein kinase (PKA) (Homo sapiens, UniProt P22694+P17612+P22612); test: Inhibition of PKA; format: protein assay
# [9] = molecular target: Proto-oncogene tyrosine-protein kinase Src (Homo sapiens, UniProt P12931); test: Inhibition of Src
# [10] = molecular target: Glycogen synthase kinase-3 beta (Homo sapiens, UniProt P49841); test: Inhibition of GSK3-beta
# [11] = molecular target: AMP-activated protein kinase, AMPK; test: Inhibition of AMPK; format: protein-complex assay
# [12] = molecular target: T2, Serine/threonine-protein kinase Chk1 (Homo sapiens, UniProt O14757); test: Inhibition of CHK1
# T2 sequence (O14757 whole entry): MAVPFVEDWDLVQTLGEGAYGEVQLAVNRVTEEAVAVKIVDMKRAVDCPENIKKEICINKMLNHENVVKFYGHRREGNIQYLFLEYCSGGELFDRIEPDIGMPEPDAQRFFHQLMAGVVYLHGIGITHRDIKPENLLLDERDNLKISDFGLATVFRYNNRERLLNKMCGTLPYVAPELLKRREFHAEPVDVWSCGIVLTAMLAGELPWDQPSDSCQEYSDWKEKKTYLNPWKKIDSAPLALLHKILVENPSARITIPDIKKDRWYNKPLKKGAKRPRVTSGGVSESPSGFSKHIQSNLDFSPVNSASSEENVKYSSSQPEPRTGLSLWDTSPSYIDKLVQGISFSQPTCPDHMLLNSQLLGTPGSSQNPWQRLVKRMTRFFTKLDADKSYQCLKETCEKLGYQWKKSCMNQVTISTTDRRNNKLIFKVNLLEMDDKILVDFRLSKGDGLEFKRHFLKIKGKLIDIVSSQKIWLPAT
# [13] = molecular target: Rho-associated protein kinase 2 (Homo sapiens, UniProt O75116); test: Inhibition of ROCK2
# [14] = molecular target: Vascular endothelial growth factor receptor 2 (Homo sapiens, UniProt P35968)
# [15] = molecular target: Tyrosine-protein kinase Lck (Homo sapiens, UniProt P06239)
# [16] = Inhibition of CDK
# MAP kinase p38 = MAP kinase p38 (Homo sapiens, UniProt O15264+Q15759+Q16539+P53778)
# [17] = Solubility in phosphate buffer at pH 7.4; format: physicochemical
# [18] = Distribution coefficient, logD of the compound; format: physicochemical; details: octanol/water
# [19] = Percent of unbound drug in rat plasma; format: ADME, organism-based
# [20] = Clearance in rat at 5 mg/kg, po and 2 mg/kg, iv; format: ADME, organism-based; details: in vivo
# [21] = Clearance in dog at 2 mg/kg, po and 1 mg/kg, iv; format: ADME, organism-based, Canis lupus familiaris; details: in vivo
# [22] = Volume of distribution in rat at 5 mg/kg, po and 2 mg/kg, iv; format: ADME, organism-based; details: in vivo, read-out: Vdss
# [23] = Volume of distribution in dog at 2 mg/kg, po and 1 mg/kg, iv; format: ADME, organism-based, Canis lupus familiaris; details: in vivo, read-out: Vdss
# [24] = Half life in rat at 5 mg/kg, po and 2 mg/kg, iv; format: ADME, organism-based; details: in vivo
# [25] = Half life in dog at 2 mg/kg, po and 1 mg/kg, iv; format: ADME, organism-based, Canis lupus familiaris; details: in vivo
# [26] = Bioavailability in rat at 5 mg/kg, po and 2 mg/kg, iv; format: ADME, organism-based; details: in vivo
# [27] = Bioavailability in dog at 2 mg/kg, po and 1 mg/kg, iv; format: ADME, organism-based, Canis lupus familiaris; details: in vivo
# LoVo [28] = test: Antitumor activity against human LoVo cell line xenografted in athymic mouse at 50 mg/kg/day after 13 days; format: functional; details: 312 h
# [29] = Percent of unbound drug in dog plasma; format: ADME, organism-based, Canis lupus familiaris
# [30] = Percent of unbound drug in human plasma; format: ADME, organism-based
# [31] = Inhibition of P450; format: ADME
# [32] = Apparent permeability from apical to basolateral side of the Caco-2 cell; format: ADME, cell-based; details: human, read-out: permeability
# LoVo [33] = test: Antitumor activity against human LoVo cell line xenografted in athymic mouse at 25 mg/kg/day after 18 days; format: functional; details: 432 h
# Sequence of Vascular endothelial growth factor receptor 2 (P35968 whole entry): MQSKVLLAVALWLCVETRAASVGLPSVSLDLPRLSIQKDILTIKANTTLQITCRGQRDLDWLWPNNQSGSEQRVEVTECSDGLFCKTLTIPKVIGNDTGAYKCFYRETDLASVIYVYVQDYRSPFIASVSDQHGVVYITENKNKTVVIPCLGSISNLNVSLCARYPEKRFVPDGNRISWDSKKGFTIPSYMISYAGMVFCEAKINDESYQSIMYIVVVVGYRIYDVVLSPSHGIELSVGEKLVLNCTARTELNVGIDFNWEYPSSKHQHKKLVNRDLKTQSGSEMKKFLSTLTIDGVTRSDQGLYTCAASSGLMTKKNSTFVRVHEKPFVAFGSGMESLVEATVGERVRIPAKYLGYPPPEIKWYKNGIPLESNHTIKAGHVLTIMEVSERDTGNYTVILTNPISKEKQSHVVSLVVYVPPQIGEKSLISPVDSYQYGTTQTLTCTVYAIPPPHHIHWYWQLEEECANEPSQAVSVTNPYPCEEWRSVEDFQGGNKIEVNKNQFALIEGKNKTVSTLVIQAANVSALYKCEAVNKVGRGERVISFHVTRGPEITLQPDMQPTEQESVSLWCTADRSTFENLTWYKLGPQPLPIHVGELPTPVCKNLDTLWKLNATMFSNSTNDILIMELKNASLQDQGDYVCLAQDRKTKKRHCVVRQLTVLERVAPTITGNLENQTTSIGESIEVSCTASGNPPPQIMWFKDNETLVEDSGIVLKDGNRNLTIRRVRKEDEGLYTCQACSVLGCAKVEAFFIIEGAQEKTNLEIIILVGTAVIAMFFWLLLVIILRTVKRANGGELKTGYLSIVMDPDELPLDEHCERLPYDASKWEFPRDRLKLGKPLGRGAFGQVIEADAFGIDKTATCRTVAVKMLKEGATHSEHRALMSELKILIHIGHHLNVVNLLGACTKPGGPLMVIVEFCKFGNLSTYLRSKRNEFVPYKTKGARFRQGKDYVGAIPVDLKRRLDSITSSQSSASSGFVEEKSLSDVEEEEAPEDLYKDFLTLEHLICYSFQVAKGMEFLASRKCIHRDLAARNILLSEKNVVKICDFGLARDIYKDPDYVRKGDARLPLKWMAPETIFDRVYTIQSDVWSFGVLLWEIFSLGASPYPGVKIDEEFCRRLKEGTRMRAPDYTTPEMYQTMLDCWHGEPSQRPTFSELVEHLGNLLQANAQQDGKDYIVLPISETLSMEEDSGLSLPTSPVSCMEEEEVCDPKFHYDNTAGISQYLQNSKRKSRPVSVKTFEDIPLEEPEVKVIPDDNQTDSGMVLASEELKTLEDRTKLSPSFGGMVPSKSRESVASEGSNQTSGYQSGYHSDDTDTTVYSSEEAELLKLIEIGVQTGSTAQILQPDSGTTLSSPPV
# Sequence of Tyrosine-protein kinase Lck (P06239 whole entry): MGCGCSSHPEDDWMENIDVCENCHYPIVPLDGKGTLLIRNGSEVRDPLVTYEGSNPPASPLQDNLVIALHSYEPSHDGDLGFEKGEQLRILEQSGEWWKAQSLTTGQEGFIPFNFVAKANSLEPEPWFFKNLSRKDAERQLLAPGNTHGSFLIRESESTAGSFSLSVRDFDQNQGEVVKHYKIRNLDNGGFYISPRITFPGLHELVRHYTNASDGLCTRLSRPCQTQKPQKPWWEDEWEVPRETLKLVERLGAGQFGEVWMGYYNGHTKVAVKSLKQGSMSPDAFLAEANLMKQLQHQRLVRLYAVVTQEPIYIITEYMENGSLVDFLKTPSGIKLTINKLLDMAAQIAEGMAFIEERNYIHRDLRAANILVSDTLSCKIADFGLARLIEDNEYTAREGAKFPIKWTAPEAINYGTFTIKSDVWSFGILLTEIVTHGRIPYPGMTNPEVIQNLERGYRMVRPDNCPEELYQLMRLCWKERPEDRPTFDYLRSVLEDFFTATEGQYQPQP
# Sequence of Glycogen synthase kinase-3 beta (P49841 whole entry): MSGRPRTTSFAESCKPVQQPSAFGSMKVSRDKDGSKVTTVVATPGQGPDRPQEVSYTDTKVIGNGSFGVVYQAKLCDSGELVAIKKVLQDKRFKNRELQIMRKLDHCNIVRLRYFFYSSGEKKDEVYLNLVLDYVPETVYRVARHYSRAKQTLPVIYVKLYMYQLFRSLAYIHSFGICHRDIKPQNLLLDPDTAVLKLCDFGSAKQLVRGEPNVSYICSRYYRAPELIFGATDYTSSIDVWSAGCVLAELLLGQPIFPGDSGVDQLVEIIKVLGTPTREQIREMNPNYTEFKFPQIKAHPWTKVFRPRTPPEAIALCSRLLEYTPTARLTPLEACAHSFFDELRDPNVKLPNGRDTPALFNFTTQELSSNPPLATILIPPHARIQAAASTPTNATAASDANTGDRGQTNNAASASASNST
# Sequence of Rho-associated protein kinase 2 (O75116 whole entry): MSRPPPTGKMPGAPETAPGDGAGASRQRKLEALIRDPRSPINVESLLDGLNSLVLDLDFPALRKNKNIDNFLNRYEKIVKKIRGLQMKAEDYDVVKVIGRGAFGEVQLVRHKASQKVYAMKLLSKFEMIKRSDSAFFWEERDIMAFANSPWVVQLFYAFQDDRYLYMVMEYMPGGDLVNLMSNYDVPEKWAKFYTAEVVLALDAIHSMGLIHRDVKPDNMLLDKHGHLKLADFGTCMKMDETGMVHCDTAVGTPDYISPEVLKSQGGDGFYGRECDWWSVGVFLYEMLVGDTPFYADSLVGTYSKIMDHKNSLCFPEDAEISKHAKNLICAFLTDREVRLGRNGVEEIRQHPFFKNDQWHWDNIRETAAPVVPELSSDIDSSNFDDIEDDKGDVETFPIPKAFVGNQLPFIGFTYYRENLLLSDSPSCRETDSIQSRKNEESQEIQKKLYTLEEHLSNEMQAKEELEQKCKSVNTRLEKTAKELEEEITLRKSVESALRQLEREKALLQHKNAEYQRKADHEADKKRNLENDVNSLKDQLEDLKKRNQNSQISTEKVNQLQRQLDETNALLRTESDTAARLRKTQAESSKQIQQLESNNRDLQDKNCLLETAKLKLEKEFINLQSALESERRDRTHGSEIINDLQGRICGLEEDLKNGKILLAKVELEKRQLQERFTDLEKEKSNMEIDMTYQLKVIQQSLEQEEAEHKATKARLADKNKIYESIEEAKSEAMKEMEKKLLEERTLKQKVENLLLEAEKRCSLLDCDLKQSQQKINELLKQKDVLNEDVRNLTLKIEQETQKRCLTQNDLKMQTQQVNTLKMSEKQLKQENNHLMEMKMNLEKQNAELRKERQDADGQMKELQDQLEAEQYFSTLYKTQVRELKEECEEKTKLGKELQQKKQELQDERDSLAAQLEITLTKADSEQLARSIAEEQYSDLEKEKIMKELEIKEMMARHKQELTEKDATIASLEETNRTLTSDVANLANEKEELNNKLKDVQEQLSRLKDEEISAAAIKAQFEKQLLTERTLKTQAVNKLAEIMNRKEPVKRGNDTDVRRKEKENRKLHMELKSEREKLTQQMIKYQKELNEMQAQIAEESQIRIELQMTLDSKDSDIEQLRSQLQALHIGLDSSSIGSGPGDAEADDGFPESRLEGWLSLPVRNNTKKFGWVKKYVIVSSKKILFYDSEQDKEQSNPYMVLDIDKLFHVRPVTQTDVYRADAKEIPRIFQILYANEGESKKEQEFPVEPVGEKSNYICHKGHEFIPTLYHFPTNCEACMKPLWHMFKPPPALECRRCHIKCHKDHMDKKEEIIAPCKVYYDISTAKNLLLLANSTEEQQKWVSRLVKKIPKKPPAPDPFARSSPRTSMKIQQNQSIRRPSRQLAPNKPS
# Sequence of Proto-oncogene tyrosine-protein kinase Src (P12931 2-536 limits assumed): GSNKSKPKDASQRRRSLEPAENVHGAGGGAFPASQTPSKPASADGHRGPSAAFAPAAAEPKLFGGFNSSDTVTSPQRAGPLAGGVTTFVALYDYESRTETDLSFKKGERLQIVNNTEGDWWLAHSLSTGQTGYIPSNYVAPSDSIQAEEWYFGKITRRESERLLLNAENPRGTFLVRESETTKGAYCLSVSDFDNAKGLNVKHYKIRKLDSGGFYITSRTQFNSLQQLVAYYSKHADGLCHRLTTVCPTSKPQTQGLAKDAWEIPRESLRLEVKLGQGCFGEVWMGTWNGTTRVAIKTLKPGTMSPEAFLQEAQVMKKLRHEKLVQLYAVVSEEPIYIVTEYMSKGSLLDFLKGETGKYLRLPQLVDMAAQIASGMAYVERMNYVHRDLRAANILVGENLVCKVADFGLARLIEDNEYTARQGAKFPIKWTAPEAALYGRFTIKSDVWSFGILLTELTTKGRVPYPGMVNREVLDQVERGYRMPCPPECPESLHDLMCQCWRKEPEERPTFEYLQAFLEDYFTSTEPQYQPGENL
# Sequence of Mitogen-activated protein kinase 1 (P28482 whole entry): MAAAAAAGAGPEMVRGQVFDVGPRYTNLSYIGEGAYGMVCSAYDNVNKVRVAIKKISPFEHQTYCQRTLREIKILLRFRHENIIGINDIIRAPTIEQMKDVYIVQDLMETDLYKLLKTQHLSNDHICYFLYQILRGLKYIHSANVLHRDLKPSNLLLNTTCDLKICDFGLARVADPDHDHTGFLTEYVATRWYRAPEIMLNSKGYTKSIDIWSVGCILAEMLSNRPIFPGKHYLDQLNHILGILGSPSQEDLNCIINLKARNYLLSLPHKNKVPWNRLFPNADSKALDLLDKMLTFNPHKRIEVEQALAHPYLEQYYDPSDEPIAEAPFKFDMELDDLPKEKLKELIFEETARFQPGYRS
Structure (SMILES),pKa [1],clearance [2] [mL/min/kg],Vd [3] [L/kg],bioavailability [4] [%],IC50 [5] [µM],IC50 [6] [µM],IC50 [7] [µM],IC50 [8] [µM],IC50 [9] [µM],IC50 [10] [µM],IC50 [11] [µM],IC50 [12] [µM],IC50 [13] [µM],IC50 [14] [µM],IC50 [15] [µM],IC50 [16] [µM],IC50 (MAP kinase p38) [µM],solubility [17] [µM],logD [18],fraction unbound [19],other results
COc1cc2ncnc(Nc3cccc(Cl)c3F)c2cc1CN(C)C1(C(N)=O)CN(C)C1,7.9,55,9.4,< 50,> 10,> 10,> 10,> 10,> 10,> 10,> 10,> 10,> 10,> 10,> 10,> 10,> 10,,,,
COc1cc2ncnc(Nc3cccc(Cl)c3F)c2cc1CN1CCC[C@H]1C(N)=O,,,,,> 10,> 10,> 10,> 10,> 10,> 10,> 10,> 10,> 10,> 10,> 10,> 10,,260,3.6,0.037,clearance [20]: 3 mL/min/kg; clearance [21]: 5 mL/min/kg; Vd [22]: 0.7 L/kg; Vd [23]: 0.4 L/kg; half-life [24]: 6.6 h; half-life [25]: 0.7 h; bioavailability [26]: 111%; bioavailability [27]: 88%; inhibition in vivo at 25 mg/kg/day (LoVo [33]): 43%; fraction unbound [29]: 0.01; fraction unbound [30]: 0.05; IC50 [31]: > 10 µM; Papp A→B [32]: > 13 ×10⁻⁶ cm/s
COc1cc2ncnc(Nc3cccc(Cl)c3F)c2cc1CN(C)[C@H](C)C(N)=O,6.8,,,,> 10,> 10,> 10,> 10,> 10,> 10,> 10,> 10,> 10,> 10,> 10,> 10,> 10,40,3.4,0.06,clearance [20]: 6 mL/min/kg; Vd [22]: 0.6 L/kg; half-life [24]: 4.3 h; bioavailability [26]: 58%; inhibition in vivo at 25 mg/kg/day (LoVo [33]): 37%; fraction unbound [29]: 0.01; fraction unbound [30]: 0.05; IC50 [31]: > 10 µM; Papp A→B [32]: > 13 ×10⁻⁶ cm/s
CNC(=O)[C@@H](C)N(C)Cc1cc2c(Nc3cccc(Cl)c3F)ncnc2cc1OC,,,,,> 10,> 10,> 10,> 10,> 10,> 10,> 10,> 10,> 10,> 10,> 10,> 10,> 10,,,,
COCCN1CC(C(N)=O)(N(C)Cc2cc3c(Nc4cccc(Cl)c4F)ncnc3cc2OC)C1,7.1,35,4.2,< 50,> 10,> 10,> 10,> 10,> 10,> 10,> 10,> 10,> 10,> 10,> 10,> 10,> 10,,,,

# Further lines, with some results ahead:
pKa [1],clearance [2] [mL/min/kg],Vd [3] [L/kg],bioavailability [4] [%],IC50 [5] [µM],IC50 [6] [µM],IC50 [7] [µM],IC50 [8] [µM],IC50 [9] [µM],IC50 [10] [µM],IC50 [11] [µM],IC50 [12] [µM],IC50 [13] [µM],IC50 [14] [µM],IC50 [15] [µM],IC50 [16] [µM],IC50 (MAP kinase p38) [µM],solubility [17] [µM],logD [18],fraction unbound [19],Structure (SMILES),other results
7.8,61,7.2,< 50,> 10,> 10,> 10,> 10,> 10,> 10,> 10,> 10,> 10,> 10,> 10,,,,,,COc1cc2ncnc(Nc3cccc(Cl)c3F)c2cc1CN(C)C1(C(N)=O)CN(C(C)C)C1,
8.3,55,7.5,< 50,> 10,> 10,> 10,> 10,> 10,> 10,> 10,> 10,> 10,> 10,> 10,> 10,> 10,,,,COc1cc2ncnc(Nc3cccc(Cl)c3F)c2cc1CN(C)C1(C(N)=O)CCN(C)CC1,
9.1,114,4.9,< 50,> 10,> 10,> 10,,> 10,> 10,> 10,> 10,> 10,> 10,,,,,,,COc1cc2ncnc(Nc3cccc(Cl)c3F)c2cc1CN(C)C1(C(N)=O)CCN(C(C)C)CC1,
,,,,> 10,> 10,> 10,> 10,> 10,> 10,> 10,> 10,> 10,> 10,,,,1,,,COc1cc2ncnc(Nc3cccc(Cl)c3F)c2cc1CN(C(C)C)[C@@H](C)C(N)=O,
,,,,> 10,> 10,> 10,> 10,> 10,> 10,> 10,> 10,> 10,> 10,> 10,> 10,> 10,40,3.4,0.065,COc1cc2ncnc(Nc3cccc(Cl)c3F)c2cc1CN(C)[C@@H](C)C(N)=O,clearance [20]: 12 mL/min/kg; clearance [21]: 14 mL/min/kg; Vd [22]: 0.8 L/kg; Vd [23]: 0.4 L/kg; half-life [24]: 4.8 h; half-life [25]: 0.4 h; bioavailability [26]: 75%; bioavailability [27]: 63%; inhibition in vivo at 50 mg/kg/day (LoVo [28]): 60%; fraction unbound [29]: 0.01; fraction unbound [30]: 0.05; IC50 [31]: > 10 µM; Papp A→B [32]: > 13 ×10⁻⁶ cm/s
